c1ccc(-n2c3ccccc3c3ccccc32)cc1
solubility (mole fraction)
Details | 283.15 K | 288.15 K | 293.15 K | 298.15 K | 303.15 K | 308.15 K | 313.15 K | 318.15 K | 323.15 K
in dimethyl carbonate | 0.054 | 0.0631 | 0.0771 | 0.0967 | 0.113 | 0.145 | 0.175 | 0.232 | 0.294
in ethyl acetate | 0.0902 | 0.109 | 0.125 | 0.14 | 0.162 | 0.197 | 0.238 | 0.286 | 0.337
in ethyl lactate | 0.0336 | 0.0362 | 0.0422 | 0.0502 | 0.0617 | 0.0731 | 0.0916 | 0.111 | 0.139
in isobutanol | 0.00379 | 0.00416 | 0.00494 | 0.00582 | 0.00684 | 0.00814 | 0.00922 | 0.0109 | 0.0133
in isobutyl acetate | 0.114 | 0.132 | 0.151 | 0.177 | 0.197 | 0.235 | 0.271 | 0.32 | 0.38
in isopentanol | 0.00614 | 0.00721 | 0.00852 | 0.0101 | 0.0125 | 0.0154 | 0.0201 | 0.0253 | 0.0339
in isopropyl acetate | 0.0729 | 0.0842 | 0.0983 | 0.111 | 0.133 | 0.163 | 0.198 | 0.238 | 0.291
in methyl acetate | 0.0727 | 0.0874 | 0.103 | 0.128 | 0.161 | 0.199 | 0.237 | 0.277 | 0.354
in n-butyl acetate | 0.113 | 0.129 | 0.146 | 0.167 | 0.186 | 0.225 | 0.26 | 0.306 | 0.355
in n-pentanol | 0.0091 | 0.0106 | 0.0122 | 0.0147 | 0.0173 | 0.0212 | 0.0252 | 0.0309 | 0.0417
in n-propyl acetate | 0.0761 | 0.0873 | 0.101 | 0.119 | 0.139 | 0.16 | 0.194 | 0.231 | 0.278
in sec-butanol | 0.00405 | 0.00482 | 0.00607 | 0.00774 | 0.00939 | 0.0119 | 0.0148 | 0.0202 | 0.0278
